In patent US9302991B2, “Arylamide derivatives as TTX-S blockers” (RaQualia Pharma Inc., priority 2010, dated 2016):

Target: T1, human Nav1.7 channels (Homo sapiens, UniProt Q15858)
T1 construct: expressed in transfected cells; host or cells: CHO
Assay: FRET assay, human Nav1.7 (EFS on FDSS)
Type: cell-based
Conditions: CHO cells expressing human Nav1.7, read-out: IC50 against Nav1.7
Experimental: The inhibitory activities of compounds against voltage gated sodium channels are determined by methodology well known in the art.
The ability of the aryl substituted carboxamide derivatives of the formula (I) to inhibit the NaV1.3, Nav1.7 and Nav1.5 channels is measured by Fluorescence Resonance Energy Transfer (FRET) assay and electrophysiology assay described below.
This screen is used to determine the effects of compounds on human Nav1.3, human Nav1.7, and human Nav1.5 channels, utilising electrical field stimulation (EFS) system in 96-well plate format on FDSS (Hamamatsu Photonics) platform. The change of membrane potential is monitored with FRET dye pair, oxonol (DiSBAC2(3)) and coumarin (CC2-DMPE).
CHO cells expressing human Nav1.7 channels are grown in T225 flasks, in a 5% CO2 humidified incubator to about 80% confluence. Media composition consists of HAM/F12 with Glutamax 1.10% FCS, 100 units/mL Penicillin and 100 microgram/mL Hygromycin.
Protocol: • Seed each cell lines (1×10^5 cells/well) into poly-D-lysine coated 96-well plates prior to experimentation. • Incubate at 37° C. in 5% CO2 for 24 hours. • Wash each well with assay buffer (140 mM NaCl, 4.5 mM KCl, 10 mM D-Glucose, 2 mM CaCl2, 1 mM MgCl2, 10 mM HEPES, pH 7.4 adjusted with NaOH) twice. • Add 1st loading solution containing 10 microM CC2-DMPE and 0.06% Pluronic F-127 in assay buffer. • Incubate the plate at room temperature in dark for 1 hour. • Remove 1st loading solution and added 2nd loading solution containing 15 microM DiSBAC2(3), 0.555 mM VABSC-1 and 0.004% Pluronic F-127 in assay buffer. • Place the plate under the dark at room temperature for 25 minutes. • Add compound solutions into the assay plate. • Set the assay plate in FDSS and placed an EFS device on the plate. • Measure EFS-induced fluorescent response by FDSS.
The data are analyzed and reported as normalized ratios of intensities measured at […]. The process of calculating these ratios is performed as follows:
This analysis is performed using a computerized specific program designed for FDSS generated data. Fluorescence ratio values are plotted using XLfit to determine an IC50 value for each compound.

T1 sequence (Q15858 whole entry): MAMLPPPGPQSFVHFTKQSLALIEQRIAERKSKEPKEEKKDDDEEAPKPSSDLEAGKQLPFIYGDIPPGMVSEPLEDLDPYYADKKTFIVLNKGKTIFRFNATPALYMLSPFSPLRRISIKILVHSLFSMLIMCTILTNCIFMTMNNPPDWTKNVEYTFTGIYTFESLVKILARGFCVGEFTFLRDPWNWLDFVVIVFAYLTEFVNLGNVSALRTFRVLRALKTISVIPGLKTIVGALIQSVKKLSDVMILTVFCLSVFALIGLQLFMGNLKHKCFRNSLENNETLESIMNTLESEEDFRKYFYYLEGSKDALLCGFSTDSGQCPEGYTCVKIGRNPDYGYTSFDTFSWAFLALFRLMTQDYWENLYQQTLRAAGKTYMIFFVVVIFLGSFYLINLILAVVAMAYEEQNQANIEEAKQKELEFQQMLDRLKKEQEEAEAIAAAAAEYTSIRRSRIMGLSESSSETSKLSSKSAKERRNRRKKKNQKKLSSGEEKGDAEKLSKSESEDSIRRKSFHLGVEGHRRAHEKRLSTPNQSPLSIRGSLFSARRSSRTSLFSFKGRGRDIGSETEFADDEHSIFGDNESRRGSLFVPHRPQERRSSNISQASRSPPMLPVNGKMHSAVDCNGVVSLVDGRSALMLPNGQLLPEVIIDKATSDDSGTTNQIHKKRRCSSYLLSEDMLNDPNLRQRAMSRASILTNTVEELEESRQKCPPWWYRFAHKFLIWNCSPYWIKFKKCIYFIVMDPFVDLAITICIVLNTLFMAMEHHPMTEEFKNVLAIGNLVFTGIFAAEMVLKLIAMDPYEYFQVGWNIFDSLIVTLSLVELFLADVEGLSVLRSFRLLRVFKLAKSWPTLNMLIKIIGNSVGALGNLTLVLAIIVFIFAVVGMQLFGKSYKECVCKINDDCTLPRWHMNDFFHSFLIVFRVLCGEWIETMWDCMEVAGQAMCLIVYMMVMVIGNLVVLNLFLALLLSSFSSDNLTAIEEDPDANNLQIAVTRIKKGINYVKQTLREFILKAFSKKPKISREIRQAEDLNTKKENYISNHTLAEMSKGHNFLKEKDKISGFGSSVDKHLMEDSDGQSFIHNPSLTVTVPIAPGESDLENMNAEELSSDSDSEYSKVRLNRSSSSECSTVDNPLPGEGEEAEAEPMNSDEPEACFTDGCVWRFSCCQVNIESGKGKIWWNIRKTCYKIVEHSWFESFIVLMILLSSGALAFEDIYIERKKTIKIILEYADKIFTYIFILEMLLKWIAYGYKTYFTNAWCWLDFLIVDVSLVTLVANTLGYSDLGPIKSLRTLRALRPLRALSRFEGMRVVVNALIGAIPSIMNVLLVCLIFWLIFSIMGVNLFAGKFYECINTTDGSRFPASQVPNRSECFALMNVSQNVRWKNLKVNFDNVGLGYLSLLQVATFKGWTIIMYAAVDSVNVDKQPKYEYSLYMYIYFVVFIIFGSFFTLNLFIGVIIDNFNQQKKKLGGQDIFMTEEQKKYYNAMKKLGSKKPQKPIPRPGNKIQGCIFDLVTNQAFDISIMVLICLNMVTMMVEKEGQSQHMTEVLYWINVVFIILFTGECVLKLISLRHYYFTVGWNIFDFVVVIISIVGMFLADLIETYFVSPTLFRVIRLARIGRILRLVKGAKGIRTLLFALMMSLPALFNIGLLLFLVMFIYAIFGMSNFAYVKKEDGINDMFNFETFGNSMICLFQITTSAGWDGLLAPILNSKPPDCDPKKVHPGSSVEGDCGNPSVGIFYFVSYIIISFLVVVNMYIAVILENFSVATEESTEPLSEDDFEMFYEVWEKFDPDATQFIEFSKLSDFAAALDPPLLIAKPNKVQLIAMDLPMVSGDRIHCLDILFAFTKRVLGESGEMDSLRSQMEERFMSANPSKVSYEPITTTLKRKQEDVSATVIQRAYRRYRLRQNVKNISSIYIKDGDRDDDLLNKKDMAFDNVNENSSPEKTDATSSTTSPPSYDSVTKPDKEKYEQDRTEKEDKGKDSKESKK

IC50, < 1000 nM:
CC(=O)Nc1cc(C(=O)NC(C)c2cc(C(F)(F)F)ccc2F)cc(C)n1 (single isomer, unassigned) [Example 981, 2-acetamido-N-(1-(2-fluoro-5-(trifluoromethyl)phenyl)ethyl)-6-methyl-isonicotinamide]
Cc1cc(C(=O)N[C@H](C)c2cccc(C(F)(F)F)c2)cc(NC(=O)C2CC2)n1 (single isomer, unassigned) [Example 838]
CC(=O)Nc1cc(C(=O)NC(C)c2ccc(OCC(F)(F)C(F)(F)F)nc2)ccn1 (single isomer, unassigned) [Example 924, 2-acetamido-N-(1-(6-(2,2,3,3,3-pentafluoropropoxy)pyridin-3-yl)ethyl)isonicotinamide]
CCC(=O)Nc1nccc(C(=O)NC(C)c2cnc(OCC(F)(F)F)c(Cl)c2)n1 (single isomer, unassigned) [Example 210, N-(1-(5-chloro-6-(2,2,2-trifluoroethoxy)pyridin-3-yl)ethyl)-2-propionamidopyrimidine-4-carboxamide]
Cc1cc(C(C)NC(=O)c2ccnc(NC(=O)C3CC3)c2)cnc1OCC(F)F (single isomer, unassigned) [Example 553, 2-(cyclopropanecarboxamido)-N-(1-(6-(2,2-difluoroethoxy)-5-methylpyridin-3-yl)ethyl)isonicotinamide]
CC(=O)Nc1cc(C(=O)NC(C)c2cnc(OCC(F)(F)C(F)F)c(C)c2)ccn1 (single isomer, unassigned) [Example 903, 2-acetamido-N-(1-(5-methyl-6-(2,2,3,3-tetrafluoropropoxy)pyridin-3-yl)ethyl)isonicotinamide]
Cc1nc(OCC(F)(F)F)c(F)cc1CNC(=O)c1ccnc(NC(=O)C(C)C)c1 [Example 314, N-((5-fluoro-2-methyl-6-(2,2,2-trifluoroethoxy)pyridin-3-yl)methyl)-2-isobutyramidoisonicotinamide]
CCOc1cc(CNC(=O)c2cc(C)nc(NC(C)=O)c2)cnc1OCC(F)(F)F [Example 264, 2-acetamido-N-((5-ethoxy-6-(2,2,2-trifluoroethoxy)pyridin-3-yl)methyl)-6-methylisonicotinamide]
Cc1cc(C(=O)NC(C)c2ccc(OCC(F)(F)C(F)F)nc2)cc(NC(=O)C(C)C)n1 (single isomer, unassigned) [Example 657, 2-isobutyramido-6-methyl-N-(1-(6-(2,2,3,3-tetrafluoropropoxy)pyridin-3-yl)ethyl)isonicotinamide]
Cc1cc(C(=O)NCc2cnc(OCC(F)(F)F)c(Br)c2)cc(NC(=O)C2CC2)n1 [Example 900, N-((5-bromo-6-(2,2,2-trifluoroethoxy)pyridin-3-yl)methyl)-2-(cyclopropanecarboxamido)-6-methylisonicotinamide]
Cc1cc(C(=O)NC(C)c2cc(C(F)(F)F)ccc2F)cc(NC(=O)C(C)C)n1 (single isomer, unassigned) [Example 980, N-(1-(2-fluoro-5-(trifluoromethyl)phenyl)ethyl)-2-isobutyramido-6-methylisonicotinamide]
CCC(=O)Nc1cc(C(=O)NC(C)c2ccc(OCCC(F)(F)F)nc2)ccn1 (single isomer, unassigned) [Example 115, 2-propionamido-N-(1-(6-(3,3,3-trifluoropropoxy)pyridin-3-yl)ethyl)isonicotinamide]
Cc1cc(C(=O)NCc2cnc(OCC(F)(F)F)cc2C)nc(NC(=O)C(C)C)n1 [Example 353, 2-isobutyramido-6-methyl-N-((4-methyl-6-(2,2,2-trifluoroethoxy)pyridin-3-yl)methyl)pyrimidine-4-carboxamide]
CC(NC(=O)c1ccnc(NC(=O)C2CC2)c1)c1ccc(OCC(F)(F)C(F)F)nc1 (single isomer, unassigned) [Example 922, 2-(cyclopropanecarboxamido)-N-(1-(6-(2,2,3,3-tetrafluoropropoxy)pyridin-3-yl)ethyl)isonicotinamide]
Cc1cc(OCC(F)(F)F)ncc1CNC(=O)c1ccnc(NC(=O)C2CC2)n1 [Example 403, 2-(cyclopropanecarboxamido)-N-((4-methyl-6-(2,2,2-trifluoroethoxy)pyridin-3-yl)methyl)pyrimidine-4-carboxamide]
Cc1cc(C(=O)NC(C)c2ccc(OCC(F)F)cc2C)cc(NC(=O)C(C)C)n1 (single isomer, unassigned) [Example 1104, N-(1-(4-(2,2-difluoroethoxy)-2-methylphenyl)ethyl)-2-isobutyramido-6-methylisonicotinamide]
Cc1cc(C(C)NC(=O)c2ccnc(NC(=O)C(C)C)c2)cnc1OCC(F)(F)F (single isomer, unassigned) [Example 378, 2-isobutyramido-N-(1-(5-methyl-6-(2,2,2-trifluoroethoxy)pyridin-3-yl)ethyl)isonicotinamide]
CCC(=O)Nc1cc(C(=O)NC(CC)c2ccc(OCC(F)(F)F)nc2)cc(C)n1 (single isomer, unassigned) [Example 133, 2-methyl-6-propionamido-N-(1-(6-(2,2,2-trifluoroethoxy)pyridin-3-yl)propyl)isonicotinamide]
Cc1cc(C(C)NC(=O)c2ccnc(NC(=O)C3CC3)n2)ccc1OCC(F)F (single isomer, unassigned) [Example 863, 2-(cyclopropanecarboxamido)-N-(1-(4-(2,2-difluoroethoxy)-3-methylphenyl)ethyl)pyrimidine-4-carboxamide]
C=CC(=O)Nc1cc(C(=O)NC(C)c2ccc(OCC(F)(F)F)nc2)cc(C)n1 (single isomer, unassigned) [Example 482, 2-acrylamido-6-methyl-N-(1-(6-(2,2,2-trifluoroethoxy)pyridin-3-yl)ethyl)isonicotinamide]
CCCC(=O)Nc1cc(C(=O)NC(C)c2cnc(OCC(F)(F)F)c(OC)c2)ccn1 (single isomer, unassigned) [Example 331, 2-butyramido-N-(1-(5-methoxy-6-(2,2,2-trifluoroethoxy)pyridin-3-yl)ethyl)isonicotinamide]
Cc1cc(C(=O)NC(C)c2ccc(OCC(F)(F)F)cc2Cl)nc(NC(=O)C2CC2)n1 (single isomer, unassigned) [Example 803, N-(1-(2-chloro-4-(2,2,2-trifluoroethoxy)phenyl)ethyl)-2-(cyclopropanecarboxamido)-6-methylpyrimidine-4-carboxamide]
CCc1cc(CNC(=O)c2ccnc(NC(=O)C3CC3)n2)cnc1OCC(F)F [Example 912, 2-(cyclopropanecarboxamido)-N-((6-(2,2-difluoroethoxy)-5-ethylpyridin-3-yl)methyl)pyrimidine-4-carboxamide]
CCC(=O)Nc1cc(C(=O)NC(C)c2ccc(OCC(F)(F)C(F)F)nc2)ccn1 (single isomer, unassigned) [Example 653, 2-propionamido-N-(1-(6-(2,2,3,3-tetrafluoropropoxy)pyridin-3-yl)ethyl)isonicotinamide]
COc1cc(CNC(=O)c2ccnc(NC(=O)C3CC3)c2)ccc1OCC(F)(F)F [Example 1102, 2-(cyclopropanecarboxamido)-N-(3-methoxy-4-(2,2,2-trifluoroethoxy)benzyl)isonicotinamide]
CC(=O)Nc1cc(C(=O)NC(C)c2cccc(OCC(F)(F)F)c2)ccn1 (single isomer, unassigned) [Example 84, 2-acetamido-N-(1-(3-(2,2,2-trifluoroethoxy)phenyl)ethyl)isonicotinamide]
COc1nc(OCC(F)F)ccc1CNC(=O)c1cc(C)nc(NC(=O)C(C)C)c1 [Example 1157, N-((6-(2,2-difluoroethoxy)-2-methoxypyridin-3-yl)methyl)-2-isobutyramido-6-methylisonicotinamide]
CC(=O)Nc1cc(C(=O)NCc2cccc(OC(F)(F)F)c2)ccn1 [Example 24, 2-acetamido-N-(3-(trifluoromethoxy)benzyl)isonicotinamide]
COc1c(CNC(=O)c2cc(C)nc(NC(C)=O)c2)cccc1C(F)(F)F [Example 819, 2-acetamido-N-(2-methoxy-3-(trifluoromethyl)benzyl)-6-methylisonicotinamide]
